Patent US20040254252A1, “Compositions containing a combination of a pharmaceutical agent or a cosmetic agent and an oxy group-bearing aromatic aldehyde and their use in treatments” (priority 2003, published 2004)

Assays:
IL-1 induction of PGE-2 = IL-1 induction of PGE-2 in human skin fibroblasts, ELISA of culture medium; type: cell-based
Protocol: For this experiment, human skin fibroblasts were seeded into 12 well culture dishes at a density of 80,000 cells/wells in tissue culture medium and left overnight to attach to the dish. The next day, medium was removed and replaced with fresh medium containing either 1% ethanol as a diluent control, IL-1 at a concentration of 500 picograms/ml, or IL-1 plus 4-EB at either 250 μM or 500 μM. Cells were incubated for an additional 24 hours and at this time, the medium was removed and assayed by ELISA for the presence of PGE-2 in the culture medium. […] The percent inhibitions are as follows: 4-EB, 100%, 6% and 10% at 50 μM, 10 μM and 1 μM.
Subsequent studies were carried out to determine the dose-response of human skin fibroblasts to 4-EB. […] The results of the study are provided graphically in FIG. 3A.
For this experiment, human skin fibroblasts were seeded into 12 well culture dishes at a density of 80,000 cells/wells in tissue culture medium and left overnight to attach to the dish. The next day, medium was removed and replaced with fresh medium containing either 1% ethanol as a diluent control, IL-1 at a concentration of 500 picograms/ml, or IL-1 plus one of the compounds under investigation at a concentration of 1, 10, 50 or 100 μM. Cells were incubated for an additional 24 hours and at this time, the medium was removed and assayed by ELISA for the presence of PGE-2 in the culture medium.

[1] = Franz cell percutaneous absorption analysis; type: in vitro ADME, human; conditions: from lotion formulation with 1.0% 4-ethoxybenzaldehyde; 24 hour period
Protocol: This lotion was then tested by Franz cell percutaneous absorption analysis to determine how much 4-EB could penetrate human skin over a 24 hour period. The lotion formulation above provided a flux rate of 4-EB through human skin of 30-50 micrograms/hour.

[2] = system: TPA-induced PGE2 expression in keratinocytes; assay: TPA-induced PGE-2 in human skin keratinocytes, ELISA of culture medium; type: cell-based; set-up: percent inhibition of TPA-induced PGE-2: unit of the concentration uncertain; conditions: TPA 32 nM
Protocol: Similar in vitro studies as those described in Example 1 were run using human skin keratinocytes. The experimental set up was the same as described for Example 2, but replacing IL-1 with tetradecanoyl phorbol acetate (TPA) at a concentration of 32 nM as the agonist.
Similar in vitro studies as those described in Example 4 were run using human skin keratinocytes. The experimental set up was the same as described for Example 5 but replacing IL-1 with tetradecanoyl phorbol acetate (TPA) at a concentration of 32 nM as the agonist. The compounds tested were 2-ethoxybenzaldehyde (2-EB), and 3-ethoxybenzaldehyde (3-EB) and 4-ethoxybenzaldehyde (4-EB) in concentrations of either 10, 50, or 100 μM.

UV-induced erythema = assay: UVB-induced erythema on inner forearm of a volunteer, topical lotion; type: in vivo, human; conditions: next day, 14 hours post-irradiation
Protocol: This lotion was then tested to determine if it could prevent an inflammatory response when applied topically to human skin. For this study a lab volunteer was irradiated on a quarter sized spot on the inner forearm with 60-80 mJ of UVB light (a sunlamp). This dose was sufficient to cause a highly visible red erythema response. Immediately following irradiation on both arms, one arm was treated with the above 4-EB lotion while the other arm was treated with the same lotion formulation but with no 4-EB.

Compound: CCOc1ccc(C=O)cc1 [4-EB, 4-ethoxybenzaldehyde]
- percent inhibition of IL-1 induced PGE-2 (IL-1 induction of PGE-2; 50 μM, IL-1 500 picograms/ml, 24 hours): 82%
- block of the IL-1 induction of PGE-2 (in words) (IL-1 induction of PGE-2; 100 μM, dose-response study): completely blocked
- inhibition of the IL-1 induction of PGE-2 (IL-1 induction of PGE-2; 250 μM, IL-1 500 picograms/ml, 24 hours): complete inhibition
- inhibition of the IL-1 induction of PGE-2 (IL-1 induction of PGE-2; 500 μM, IL-1 500 picograms/ml, 24 hours): complete inhibition
- flux rate of 4-EB through human skin [1]: 30-50 micrograms/hour
- percent inhibition of TPA-induced PGE-2 ([2]; 50 μM): 79.9%
- percent inhibition of TPA-induced PGE-2 ([2]; 1001 (unit uncertain)): 94.9%
- inhibition at 50 µM ([2]; Homo sapiens, Keratinocyte, 50 μM, read-out: percent inhibition of TPA-induced PGE-2): 79.9%
- inhibition at 100 µM ([2]; Homo sapiens, Keratinocyte, 100 μM, read-out: percent inhibition of TPA-induced PGE-2): 94.9%
- redness of the treated spot (UV-induced erythema): no redness

Compound: COc1ccc(C=O)cc1 [4-MB, 4-methoxybenzaldehyde]
- inhibition of the IL-1 induced production of PGE-2 (in words) (IL-1 induction of PGE-2; 50 μM): did not appear to inhibit
